From ChEMBL document CHEMBL3994625, “Crystal structures, binding interactions, and ADME evaluation of brain penetrant N-substituted indazole-5-carboxamides as subnanomolar, selective monoamine oxidase B and dual MAO-A/B inhibitors” (Eur J Med Chem, 2017)
Values after ≈ are worked out from the molar mass of the structure shown.

How the values were obtained:
Homo sapiens = species: Homo sapiens; assay: Selectivity index, ratio of IC50 for recombinant human MAOA to IC50 for recombinant human MAOB
[1] = n-octanol-phosphate buffer distribution coefficient, log D of the compound at pH 5.5 after 90 mins by shake-flask method; type: physicochemical
[2] = n-octanol-phosphate buffer distribution coefficient, log D of the compound at pH 2 after 90 mins by shake-flask method; type: physicochemical
[3] = Effective permeability of the compound at pH 2 at 200 uM after 4 hrs by PAMPA-GI assay; type: physicochemical; settings: read-out: Peff
[4] = Effective permeability of the compound at pH 5.5 at 200 uM after 4 hrs by PAMPA-GI assay; type: physicochemical; settings: read-out: Peff
[5] = Effective permeability of the compound at pH 7.4 at 200 uM after 4 hrs by PAMPA-GI assay; type: physicochemical; settings: read-out: Peff
[6] = Effective permeability of the compound at pH 7.4 at 200 uM after 4 hrs by PAMPA-BBB assay; type: physicochemical; settings: read-out: Peff
[7] = buffer, pH 7.4, […], 500 µM
[8] = buffer, pH 5.5, […], 500 µM
[9] = buffer, pH 2, […], 500 µM
physchem [10] = settings: phosphate buffer, pH 7.4
physchem [11] = settings: phosphate buffer, pH 5.5
physchem [12] = settings: phosphate buffer, pH 2
[13] = molecular target: T1, Amine oxidase [flavin-containing] A (Homo sapiens, UniProt P21397); assay: biochemical
T1 sequence (P21397 whole entry): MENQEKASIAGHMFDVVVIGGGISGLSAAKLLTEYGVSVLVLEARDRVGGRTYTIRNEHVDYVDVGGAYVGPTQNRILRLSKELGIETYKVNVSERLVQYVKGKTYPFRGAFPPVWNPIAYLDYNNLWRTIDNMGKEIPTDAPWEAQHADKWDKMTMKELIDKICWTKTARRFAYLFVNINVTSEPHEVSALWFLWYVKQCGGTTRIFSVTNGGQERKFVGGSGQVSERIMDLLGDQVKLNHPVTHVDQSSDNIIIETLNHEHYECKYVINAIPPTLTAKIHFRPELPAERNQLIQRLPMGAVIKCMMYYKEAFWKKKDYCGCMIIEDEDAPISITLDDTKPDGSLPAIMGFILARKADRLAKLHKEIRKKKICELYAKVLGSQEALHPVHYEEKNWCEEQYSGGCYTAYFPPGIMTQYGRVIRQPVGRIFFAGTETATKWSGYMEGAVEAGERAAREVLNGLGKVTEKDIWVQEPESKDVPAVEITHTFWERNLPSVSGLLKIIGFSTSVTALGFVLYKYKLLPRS

[14] = n-octanol-phosphate buffer distribution coefficient, log D of the compound at pH 7.4 after 90 mins by shake-flask method; type: physicochemical
[15] = molecular target: T2, Amine oxidase [flavin-containing] B (Homo sapiens, UniProt P27338); assay: biochemical
T2 sequence (P27338 whole entry): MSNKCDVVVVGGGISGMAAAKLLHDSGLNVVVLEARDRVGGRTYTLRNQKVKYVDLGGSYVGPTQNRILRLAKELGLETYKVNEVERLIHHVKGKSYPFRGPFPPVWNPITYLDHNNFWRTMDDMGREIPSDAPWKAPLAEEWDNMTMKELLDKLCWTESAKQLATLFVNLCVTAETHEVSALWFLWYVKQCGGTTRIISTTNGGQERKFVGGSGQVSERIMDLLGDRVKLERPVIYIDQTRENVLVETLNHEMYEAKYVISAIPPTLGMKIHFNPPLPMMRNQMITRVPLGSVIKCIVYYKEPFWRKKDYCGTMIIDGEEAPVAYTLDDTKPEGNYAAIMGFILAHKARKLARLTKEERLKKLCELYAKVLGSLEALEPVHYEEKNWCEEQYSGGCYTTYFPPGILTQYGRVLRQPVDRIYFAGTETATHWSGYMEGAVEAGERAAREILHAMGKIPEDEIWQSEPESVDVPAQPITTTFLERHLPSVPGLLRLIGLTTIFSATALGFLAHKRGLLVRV

[16] = molecular target: T3, Amine oxidase [flavin-containing] B (Rattus norvegicus, UniProt P19643); assay: Inhibition of MAOB in Sprague-Dawley rat liver mitochondria using p-tyramine as substrate measured for 45 mins in presence of MAOA inhibitor clorgyline by continuous fluorescence-based method
T3 sequence (P19643 whole entry): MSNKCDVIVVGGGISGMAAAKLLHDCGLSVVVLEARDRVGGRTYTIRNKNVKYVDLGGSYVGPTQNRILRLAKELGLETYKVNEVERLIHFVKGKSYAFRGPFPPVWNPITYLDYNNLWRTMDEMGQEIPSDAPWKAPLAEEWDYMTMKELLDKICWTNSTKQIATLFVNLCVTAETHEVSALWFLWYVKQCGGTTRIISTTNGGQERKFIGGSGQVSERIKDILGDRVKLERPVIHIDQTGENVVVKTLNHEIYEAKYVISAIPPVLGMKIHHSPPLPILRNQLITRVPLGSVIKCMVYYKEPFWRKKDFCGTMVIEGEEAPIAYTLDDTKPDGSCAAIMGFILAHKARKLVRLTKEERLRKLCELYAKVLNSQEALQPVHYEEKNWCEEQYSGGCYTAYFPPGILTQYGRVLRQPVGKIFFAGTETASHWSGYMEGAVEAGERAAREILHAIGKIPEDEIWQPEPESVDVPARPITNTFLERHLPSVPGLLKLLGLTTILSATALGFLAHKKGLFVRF

[17] = molecular target: T4, Amine oxidase [flavin-containing] A (Rattus norvegicus, UniProt P21396)
T4 sequence (P21396 whole entry): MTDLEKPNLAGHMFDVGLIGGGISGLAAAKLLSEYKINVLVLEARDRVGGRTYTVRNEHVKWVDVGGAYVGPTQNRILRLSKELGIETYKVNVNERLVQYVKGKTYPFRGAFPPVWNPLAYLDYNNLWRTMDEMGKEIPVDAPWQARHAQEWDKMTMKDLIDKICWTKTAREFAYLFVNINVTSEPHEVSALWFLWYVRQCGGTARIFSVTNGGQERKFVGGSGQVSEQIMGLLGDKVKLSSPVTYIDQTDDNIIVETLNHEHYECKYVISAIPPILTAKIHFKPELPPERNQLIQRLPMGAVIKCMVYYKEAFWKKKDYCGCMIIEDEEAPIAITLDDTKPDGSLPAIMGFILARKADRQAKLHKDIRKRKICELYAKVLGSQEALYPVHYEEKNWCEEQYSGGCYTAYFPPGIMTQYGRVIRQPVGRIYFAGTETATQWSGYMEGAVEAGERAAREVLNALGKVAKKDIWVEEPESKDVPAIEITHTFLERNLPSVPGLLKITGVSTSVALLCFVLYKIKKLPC

Ratio IC50 (Homo sapiens) | logD at […] [1] | logD at […] [2] | logD at […] [14] | SMILES | Papp at 4 h, 200 µM [3] [×10⁻⁶ cm/s] | Papp at 4 h, 200 µM [4] [×10⁻⁶ cm/s] | Papp at 4 h, 200 µM [5] [×10⁻⁶ cm/s] | Papp at 4 h, 200 µM [6] [×10⁻⁶ cm/s] | log(Kinetic_solubility) [7] | log(Kinetic_solubility) [8] | log(Kinetic_solubility) [9] | solubility kinetic at […], 500 µM (physchem [10]) [µM] | solubility kinetic at […], 500 µM (physchem [11]) [µM] | solubility kinetic at […], 500 µM (physchem [12]) [µM] | IC50 [13] [nM] | Ki [15] [nM] | IC50 [16] [nM] | IC50 [17] [nM] | IC50 [15] [nM]
6580 | – | – | – | Cn1ncc2cc(C(=O)Nc3ccc(F)c(F)c3)ccc21 | – | – | – | – | – | – | – | – | – | – | – | – | – | – | –
20 | – | – | – | Cn1cc2cc(C(=O)Nc3ccc(F)c(F)c3)ccc2n1 | – | – | – | – | – | – | – | – | – | – | – | – | – | – | –
– | -0.76 | -2.46 | -0.37 | COCCc1ccc(OCC(O)CNC(C)C)cc1 (stereo unspecified) [METOPROLOL] | – | – | – | – | – | – | – | – | – | – | – | – | – | – | –
> 86 | – | – | – | O=C(Nc1ccccc1)c1ccc2[nH]ncc2c1 | – | – | – | – | – | – | – | – | – | – | – | – | – | – | –
– | 2.52 | 2.39 | – | Cn1ncc2cc(C(=O)Nc3ccc(F)c(Cl)c3)ccc21 | 27.2 | 29.5 | 31.7 | 37.6 | – | – | – | 77.4 (≈ 23.5 µg/mL) | 69.1 (≈ 21 µg/mL) | 57.5 (≈ 17.5 µg/mL) | – | – | – | – | –
– | – | – | – | Cn1ncc2cc(C(=O)Nc3ccc(Cl)c(Cl)c3)ccc21 | 18.3 | 16.8 | 18.6 | 22.3 | -5.45 | -5.52 | -5.39 | 3.51 (≈ 1.12 µg/mL) | 3.04 (≈ 0.973 µg/mL) | 4.07 (≈ 1.3 µg/mL) | – | – | – | – | –
– | 2.54 | 2.49 | 2.97 | Cn1cc2cc(C(=O)Nc3ccc(Cl)c(Cl)c3)ccc2n1 | 14.5 | 16.1 | 17.6 | 29 | -4.25 | -4.3 | -4.24 | 55.9 (≈ 17.9 µg/mL) | 50 (≈ 16 µg/mL) | 57.5 (≈ 18.4 µg/mL) | – | 0.64 | – | – | –
17100 | – | – | – | O=C(Nc1ccc(Cl)c(Cl)c1)c1ccc2[nH]ncc2c1 | – | – | – | – | – | – | – | – | – | – | – | – | – | – | –

SMILES | Ratio IC50 (Homo sapiens) | logD at […] [1] | logD at […] [2] | logD at […] [14] | Papp at 4 h, 200 µM [3] [×10⁻⁶ cm/s] | Papp at 4 h, 200 µM [4] [×10⁻⁶ cm/s] | Papp at 4 h, 200 µM [5] [×10⁻⁶ cm/s] | Papp at 4 h, 200 µM [6] [×10⁻⁶ cm/s] | log(Kinetic_solubility) [7] | log(Kinetic_solubility) [8] | log(Kinetic_solubility) [9] | solubility kinetic at […], 500 µM (physchem [10]) [µM] | solubility kinetic at […], 500 µM (physchem [11]) [µM] | solubility kinetic at […], 500 µM (physchem [12]) [µM] | IC50 [13] [nM] | Ki [15] [nM] | IC50 [16] [nM] | IC50 [17] [nM] | IC50 [15] [nM]
O=C(Nc1ccc(F)c(F)c1)c1ccc2[nH]ncc2c1 | 6290 | 1.94 | 2.17 | – | ≤ 0.59 | ≤ 0.59 | ≤ 0.59 | 8.15 | -4.22 | -4.2 | -4.21 | 60.7 (≈ 16.6 µg/mL) | 62.7 (≈ 17.1 µg/mL) | 61.1 (≈ 16.7 µg/mL) | 6.61 | – | – | – | –
Cn1cc2cc(C(=O)Nc3ccc(F)c(Cl)c3)ccc2n1 | 70 | 2.55 | 3.24 | 2.64 | 8.16 | 9.11 | 9.35 | 17.2 | -3.36 | -3.38 | -3.36 | 441 (≈ 134 µg/mL) | 421 (≈ 128 µg/mL) | 439 (≈ 133 µg/mL) | 8.13 | 3.57 | – | – | –
COCCn1ncc2cc(C(=O)Nc3ccc(Cl)c(Cl)c3)ccc21 | > 2660 | – | – | – | – | – | – | – | – | – | – | – | – | – | 2870 | 0.48 | 3.82 | > 10000 | 1.08
